Data from patent US11529335B2, “Compositions and methods for treating cancer” (UNIVERSITY OF IOWA RESEARCH FOUNDATION, priority 2020, dated 2022).

Tests used:
A375 xenografts = A375 xenografts in athymic nu/nu mice: tumor growth, response, survival, body weight; type: in vivo
Description: (§1) 2-Mercaptoethanol is a reducing agent that leads to reduction of disulphide bonds to produce thiols. […] The effect of eliminating GSH in vivo was tested by treating mice (Athymic nu/nu) bearing A375 xenografts with rodent diet (AIN-76A) containing PLX4720 ([…], 416 mg/kg of diet) alone and in combination with BSO (15 mM in drinking water). […] Tumor xenografts in mice treated with the AIN-76 diet mixed with PLX4720 were responsive initially, but approximately 80% of these tumors acquired resistance to BRAFi treatment alone within 140 days (i.e., 20% complete responses; FIG. 2). On the contrary, the combination of BSO with PLX4720 produced nearly 90% complete and durable tumor responses (FIG. 4). […] Tumor progression was defined as a 50% increase (approximately a two standard deviation increase) in tumor volume from study initiation.
Female athymic nu/nu mice (age six weeks) were purchased from Envigo (previously Harlan Laboratories) and housed in the Animal Care Facility at The University of Iowa (Iowa City, Iowa). All procedures were approved by The University of Iowa Institutional Animal Care and Use Committee. All mice were naïve to treatments at the time of xenograft. For each xenograft, 1-3×10^6 cells (451LuBR and A375) were implanted subcutaneously in a 1:1 suspension of Matrigel (Corning) and PBS (flank) using a 27-gauge needle. For all in vivo studies, the mice were randomly assigned to experimental groups post-implant. Animals developed tumors within 7-10 days post-implant. Initiation of treatments was standardized to the time that tumor volume ([(longest length)×(smallest length^2)]/2) reached 80-100 mm^3.
The dose and mode of delivery for PBA was determined by analyzing the pharmacokinetics C-14 labeled PBA in mice (FIG. 5). These drugs were administered alone and in combination depending on the experimental group. The mice were monitored for their state of health every day. Tumor volume and animal weights were measured twice per week. Mice were euthanized when the observed state of health reached the endpoint according to the approved IACUC protocol or when the tumor volume reached 1500 mm^3.
Statistics was conducted using the tumor sizes (mm^3) that were obtained periodically throughout the experiments, resulting in repeated measurements for each mouse. Linear mixed effects regression models were used to estimate and compare treatment group-specific tumor growth curves. Pairwise comparisons were performed to identify treatment group differences in the growth curves. The Kaplan-Meier method was used to estimate the survival curves, and group comparisons were made using the log rank test. Mice who developed ulcerations were censored at day of euthanasia. […]

[1] = system: GSH in A375 xenograft tumor samples; test: GSH concentrations in tumor samples from treated mice; type: in vivo, mice (Athymic nu/nu); details: mice treated with BSO, 15 mM in drinking water
Description: as §1
Female athymic nu/nu mice (age six weeks) were purchased from Envigo (previously Harlan Laboratories) and housed in the Animal Care Facility at The University of Iowa (Iowa City, Iowa). All procedures were approved by The University of Iowa Institutional Animal Care and Use Committee. All mice were naïve to treatments at the time of xenograft. For each xenograft, 1-3×10^6 cells (451LuBR and A375) were implanted subcutaneously in a 1:1 suspension of Matrigel (Corning) and PBS (flank) using a 27-gauge needle. […]

Row | Structure (SMILES) | tumor growth rate versus untreated controls (A375 xenografts; BSO alone, 15 mM in drinking water, A375 xenografts) | GSH concentrations in tumor samples vs controls [1] | complete (and durable) tumor responses (A375 xenografts; A375 xenografts, PLX4720 416 mg/kg of diet, alone or with BSO 15 mM in drinking water) [%] | time within which tumor xenografts acquire resistance (A375 xenografts; BRAFi treatment alone) [days] | tumors that acquired resistance to BRAFi treatment alone (A375 xenografts; within 140 days, PLX4720 416 mg/kg of AIN-76A diet)
1 | CCCCS(=N)(=O)CCC(N)C(=O)O (centres unmarked) [BSO, buthionine sulfoximine] | No significant difference | significantly lower |  |  | 
2 | CCCS(=O)(=O)Nc1ccc(F)c(C(=O)c2c[nH]c3ncc(Cl)cc23)c1F [PLX4720] |  |  | 20 | ≤ 140 | approximately 80%
